Values of other authors, collected in article PMC4364341, “NBD delivery improves the disease phenotype of the golden retriever model of Duchenne muscular dystrophy” (Skeletal Muscle, 2014).

Test system: GRMD dogs
Settings: previous GRMD prednisone trial; cited from earlier work
Source text: This functional benefit obtained by NBD in GRMD dogs was consistent with that obtained in the mdx murine model of DMD [13].

C[C@]12C=CC(=O)C=C1CC[C@@H]1[C@@H]2C(=O)C[C@@]2(C)[C@H]1CC[C@]2(O)C(=O)CO [prednisone]
Extension force in treated GRMD dogs: increased extension force
